Assay [1] has as its target T1, human STING (HAQ) (Homo sapiens (Human), UniProt Q86WV6, G230A/H232R/R293Q). The assay is described as follows: Differential scanning fluorimetry (DSF), huSTING (HAQ). The assay is classed as binding. As to conditions: compound 100 μM, 2 μM protein, Tm with ligand minus Tm of protein alone (1% DMSO). The method, then: (§1) Data were analyzed using “Meltdown analysis” protocol described by Rosa (2015).
(In DSF a fluorescence change marks the thermal transition of the protein.)

Assay [2] has as its target T2, human STING (WT) (Homo sapiens (Human), UniProt Q86WV6, H232R). In words: Differential scanning fluorimetry (DSF), huSTING (WT). Format: binding. As to conditions: compound 100 μM, 2 μM protein, Tm with ligand minus Tm of protein alone (1% DMSO). On the procedure: as §1
Assay [3] addresses human HAQ isoform of STING (Homo sapiens (Human), UniProt Q86WV6, G230A/H232R/R293Q/R71H). In words: THP-1 STING Lucia ISG reporter cell line assay. The assay is classed as cell-based. The following applies: 24 h incubation, luminescence, normalized to ML RR-S2 CDA 40 μM; read-out: EC50 THP-I STING Lucia ISG cells. In outline: (§2)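 THP-1 reporter cells, 5×10^5 cells/mL, were exposed 24 h at 37 °C to 11-point, 2.5-fold compound dilutions; positive control was 40 μM final ML RR-S2 CDA. ISG-driven Lucia luciferase was read by QUANTI-Luc luminescence, normalized to positive and untreated controls, giving EC50. HAQ STING: THP-1 STING Lucia ISG; WT R232: THP-1-Dual KI-hSTING-R232.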

The target of assay [4] is WT human STING isoform (Homo sapiens (Human), UniProt Q86WV6, H232R). The assay is described as follows: THP-1-Dual KI-hSTING-R232 reporter cell line assay. Format: cell-based. As to conditions: 24 h incubation, luminescence, normalized to ML RR-S2 CDA 40 μM; read-out: EC50 THP-1 Dual KI-hSTING-R232 cells. In outline: as §2
Chain of WT human STING isoform (Q86WV6 whole entry H232R, canonical isoform): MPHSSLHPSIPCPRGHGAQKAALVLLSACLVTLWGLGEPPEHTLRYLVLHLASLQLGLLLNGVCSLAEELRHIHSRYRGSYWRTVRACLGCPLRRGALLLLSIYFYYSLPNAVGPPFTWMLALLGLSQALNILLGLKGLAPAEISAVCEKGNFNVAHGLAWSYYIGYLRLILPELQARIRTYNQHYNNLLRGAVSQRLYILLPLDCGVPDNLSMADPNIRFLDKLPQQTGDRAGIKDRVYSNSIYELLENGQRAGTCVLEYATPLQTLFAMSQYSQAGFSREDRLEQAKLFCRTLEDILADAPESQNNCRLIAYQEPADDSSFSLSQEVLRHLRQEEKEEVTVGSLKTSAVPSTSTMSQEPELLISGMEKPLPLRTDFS
For assay [5], the target named is T1, human STING (HAQ). The assay is described as follows: biochemical.
For assay [6], the target named is T2, human STING (WT). In words: biochemical.

T2 sequence (Q86WV6 149-345 H232R): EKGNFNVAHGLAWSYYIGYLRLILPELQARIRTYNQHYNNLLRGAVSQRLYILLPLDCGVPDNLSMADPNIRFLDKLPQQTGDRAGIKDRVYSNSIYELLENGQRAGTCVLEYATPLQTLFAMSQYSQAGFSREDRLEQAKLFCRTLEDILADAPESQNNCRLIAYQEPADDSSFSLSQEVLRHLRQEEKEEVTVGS
T1 sequence (Q86WV6 149-345 G230A/H232R/R293Q): as the sequence (Q86WV6 149-345 H232R) above, with G82A, R145Q counted along it
Chain of human HAQ isoform of STING (Q86WV6 whole entry R71H/G230A/H232R/R293Q, canonical isoform): as the sequence (Q86WV6 whole entry H232R, canonical isoform) above, with R71H, G230A, R293Q counted along it

As to `NC(=O)c1ccc2c(c1)nc(-c1c(C(=O)O)sc3cccc(Cl)c13)n2CCCn1c(-c2c(C(=O)O)sc3cccc(Cl)c23)nc2cc(C(N)=O)ccc21` (single isomer, unassigned) [Example 4.2, 3,3′-(Propane-1,3-diylbis(5-carbamoyl-1H-benzo[d]imidazole-1,2-diyl))bis(4-chlorobenzo[b]thiophene-2-carboxylic acid)], the ΔTm (commonly the change in melting temperature against a reference sample) at 100 µM in assay [1] is 4.56 °C. In assay [2], the “DSF huSTING (WT) ΔTm” value is −0.76 °C. The figures for the EC50 in assay [3] and in assay [4] were more than 40 µM and 19 µM, respectively. For the same molecule, the results for the Kd in assay [5] and in assay [6] were 16.6 µM and 23 µM, respectively.

The record behind these values is patent US12384801B2, “Benzothiophene, thienopyridine and thienopyrimidine derivatives for the modulation of sting” (CTXT PTY LTD, priority 2019, dated 2025).
